Some test systems named below: SW-620 colon; RPMI-8226 leukemia; HOP-92 NSCLC; MCF7 breast; MALME-3M melanoma; SNB-75 CNS; UO-31 renal; OVCAR-4 ovarian.
Holding throughout (test): NCI-60 cell line screen, 48 h

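Five compound concentrations were applied to cells in 96-well plates for 48 hours; endpoints were derived by simple linear interpolation of the resulting dose-response curve. GI50 is the concentration that inhibits growth by half. TGI: total growth inhibition.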

Consider `Cn1c([N+](=O)[O-])cnc1/C=C1\Oc2ccc(Cl)cc2C1=O`, for which the GI50 was 0.181 µM with SW-620 colon; 0.985 µM with RPMI-8226 leukemia; 1.03 µM in the experiment on HOP-92 NSCLC; 0.485 µM with MCF7 breast; 1.42 µM in the experiment with MALME-3M melanoma; 0.63 µM with SNB-75 CNS. Further, the GI50 in the experiment on UO-31 renal was 0.394 µM; in the experiment on OVCAR-4 ovarian, 1.7 µM. Further, the TGI came out at 0.66 µM with SW-620 colon; 5.58 µM in the experiment on RPMI-8226 leukemia; 4.12 µM in the experiment on HOP-92 NSCLC; 4.42 µM with MCF7 breast; 4.78 µM in the experiment with MALME-3M melanoma; 2.27 µM in the experiment with SNB-75 CNS. In addition, the TGI with UO-31 renal is 2.97 µM; with OVCAR-4 ovarian, 5.71 µM.

As to `O=C1/C(=C/c2ccc([N+](=O)[O-])s2)Oc2ccc(Cl)cc21`, the GI50 in the experiment with SW-620 colon is 0.206 µM; in the experiment on RPMI-8226 leukemia it was 0.298 µM; in the experiment on HOP-92 NSCLC it was 0.176 µM; in the experiment with MCF7 breast it was 0.305 µM; with MALME-3M melanoma, 0.526 µM; in the experiment on SNB-75 CNS it was 0.486 µM. Besides, the GI50 in the experiment with UO-31 renal is 0.152 µM; in the experiment with OVCAR-4 ovarian it was 0.406 µM. Besides, the TGI was determined as 0.49 µM in the experiment with SW-620 colon; 0.97 µM in the experiment on RPMI-8226 leukemia; 0.519 µM with HOP-92 NSCLC; 1.43 µM in the experiment with MCF7 breast; 1.38 µM in the experiment with MALME-3M melanoma; 1.74 µM in the experiment with SNB-75 CNS. Also, the figures for the TGI with UO-31 renal and in the experiment with OVCAR-4 ovarian were 0.295 µM and 0.897 µM, respectively.

Turning to `COc1ccc(/C(C)=C(\c2ccc(Cl)cc2)c2ccc(OCCN3CCCCC3)cc2)cc1F`, the GI50 with SW-620 colon was 2.34 µM; with RPMI-8226 leukemia, 3.49 µM; with HOP-92 NSCLC, 2.5 µM; in the experiment on MCF7 breast, 3.34 µM; in the experiment on MALME-3M melanoma, 2.18 µM; with SNB-75 CNS, 4.29 µM. For the same molecule, the GI50 with UO-31 renal is 2.05 µM; in the experiment on OVCAR-4 ovarian, 2.99 µM. The TGI with SW-620 colon was 5.35 µM; with RPMI-8226 leukemia, 8.49 µM; in the experiment on HOP-92 NSCLC, 6.08 µM; with MCF7 breast, 8.24 µM; in the experiment on MALME-3M melanoma it was 4.46 µM; in the experiment on SNB-75 CNS, 13.1 µM. In addition, the TGI was determined as 4.21 µM in the experiment with UO-31 renal and 8.99 µM in the experiment on OVCAR-4 ovarian.

Turning to `CC(=O)OC1C(OC/C2=C/C3[C@@H](C(C)C)CC=C(C)[C@@H]3CC(OC(=O)/C=C/c3cn(C)cn3)[C@]3(C)C=C[C@@]2(O)O3)OCC(O)C1O` (stereo not given in full), the GI50 in the experiment with SW-620 colon is 0.0188 µM; in the experiment on RPMI-8226 leukemia, 0.0244 µM; with HOP-92 NSCLC it was 1.02 µM; with MCF7 breast, 0.0146 µM; in the experiment with MALME-3M melanoma it was 0.0195 µM; in the experiment on SNB-75 CNS, 0.00575 µM. The values for the GI50 in the experiment with UO-31 renal and in the experiment on OVCAR-4 ovarian were 1.13 µM and 0.0586 µM, respectively. The TGI was above 50 µM in the experiment on SW-620 colon; above 50 µM with RPMI-8226 leukemia; above 50 µM in the experiment on HOP-92 NSCLC; above 50 µM in the experiment with MCF7 breast; above 50 µM in the experiment with MALME-3M melanoma; 0.0319 µM in the experiment with SNB-75 CNS. Moreover, the TGI in the experiment with UO-31 renal and in the experiment with OVCAR-4 ovarian was above 50 µM in each case.

As for `N#Cc1ccccc1C#C/C=C\C#Cc1cnccn1`, the GI50 in the experiment on SW-620 colon was 5.85 µM; in the experiment on RPMI-8226 leukemia it was 2.71 µM; with MCF7 breast, above 60 µM; with MALME-3M melanoma it was 22.3 µM; in the experiment on SNB-75 CNS, above 73.9 µM; in the experiment with UO-31 renal, 44 µM. Further, in the experiment with OVCAR-4 ovarian, the GI50 was 36 µM. The TGI in the experiment on SW-620 colon is above 41.9 µM; in the experiment on RPMI-8226 leukemia, above 21.5 µM; in the experiment on HOP-92 NSCLC, above 28.4 µM; with MCF7 breast it was above 100 µM; in the experiment on MALME-3M melanoma, 81.4 µM; with SNB-75 CNS it was above 100 µM. Moreover, the TGI in the experiment on UO-31 renal and in the experiment with OVCAR-4 ovarian was above 100 µM each time.

With `Cc1cc(N2CCOCC2)nc(N(CCNc2ccnc3cc(Cl)ccc23)Cc2cccs2)n1`, the GI50 in the experiment on SW-620 colon is 1.92 µM; in the experiment on RPMI-8226 leukemia, 1.87 µM; in the experiment with HOP-92 NSCLC, 0.22 µM; with MCF7 breast it was 1.97 µM; in the experiment with MALME-3M melanoma, 2.06 µM; in the experiment on SNB-75 CNS, 1.98 µM. Besides, the GI50 with UO-31 renal was 1.39 µM; in the experiment with OVCAR-4 ovarian, 2.37 µM. Besides, the TGI amounted to 4.18 µM in the experiment on SW-620 colon; 4.04 µM in the experiment with RPMI-8226 leukemia; 1.93 µM in the experiment on HOP-92 NSCLC; 4.68 µM with MCF7 breast; 3.72 µM with MALME-3M melanoma; 5.25 µM in the experiment with SNB-75 CNS. The TGI stood at 2.75 µM with UO-31 renal and 7.59 µM in the experiment on OVCAR-4 ovarian.

Take `COc1ccc(/C=C2\CN(Cc3cn(CCCNc4ccnc5cc(Cl)ccc45)nn3)C/C(=C\c3ccc(OC)cc3)C2=O)cc1`: the GI50 with SW-620 colon was 1.69 µM; with RPMI-8226 leukemia, 2.22 µM; in the experiment on HOP-92 NSCLC, 0.962 µM; in the experiment with MCF7 breast it was 2.01 µM; in the experiment on MALME-3M melanoma it was 2.09 µM; in the experiment on SNB-75 CNS, 3.89 µM. Moreover, the results for the GI50 in the experiment on UO-31 renal and in the experiment on OVCAR-4 ovarian were 3.85 µM and 7.37 µM, respectively. In addition, the TGI worked out at 3.57 µM with SW-620 colon; 10.3 µM in the experiment with RPMI-8226 leukemia; 15.9 µM in the experiment with HOP-92 NSCLC; 10.1 µM in the experiment with MCF7 breast; 5.37 µM in the experiment on MALME-3M melanoma; 19.7 µM with SNB-75 CNS. Further, the TGI with UO-31 renal was determined as 21.4 µM; in the experiment on OVCAR-4 ovarian, 28.1 µM.

On to `Cn1c(N)c(N=Nc2ccc(S(N)(=O)=O)cc2)c(=O)n(C)c1=O`, for which the TGI was above 100 µM with SW-620 colon; above 100 µM in the experiment on RPMI-8226 leukemia; above 100 µM with HOP-92 NSCLC; above 100 µM in the experiment on MCF7 breast; above 100 µM in the experiment on MALME-3M melanoma; 56.2 µM with SNB-75 CNS. In addition, the TGI with UO-31 renal and with OVCAR-4 ovarian was above 100 µM in each case.

For `N#CC1=C(N)Oc2c(ccc3ccccc23)C1c1ccccc1Cl` (stereo not given), the GI50 in the experiment on SW-620 colon is 0.172 µM; with RPMI-8226 leukemia, 0.348 µM; with HOP-92 NSCLC, 2.24 µM; with MCF7 breast, 0.383 µM; in the experiment on MALME-3M melanoma it was 0.617 µM; in the experiment with SNB-75 CNS, 0.163 µM. For the same molecule, the GI50 with UO-31 renal is 0.282 µM; in the experiment on OVCAR-4 ovarian, 1.13 µM. Besides, the TGI with SW-620 colon is 14.7 µM; in the experiment on RPMI-8226 leukemia, 8.86 µM; in the experiment on HOP-92 NSCLC, 15.1 µM; in the experiment with MCF7 breast, 15.2 µM; in the experiment with MALME-3M melanoma, 22.9 µM; with SNB-75 CNS, 2.95 µM. In addition, the TGI came to 24.8 µM in the experiment with UO-31 renal and 20.4 µM in the experiment on OVCAR-4 ovarian.

The values above are taken from PubChem BioAssay (NCI).
